In the METLIN SMRT retention time set (Domingo-Almenara et al. 2019):

Assay: gradient 5% acetonitrile 3 min, to 50% in 2 min, to 85% in 15 min, held 3 min, 100 µL/min
Details: column: Zorbax Extend-C18 2.1 x 50 mm; eluents: water / acetonitrile, 0.1% formic acid
Method in brief: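 Mixtures of ~100 pure standards were chromatographed on a Zorbax Extend-C18 column (2.1 × 50 mm, 1.8 μm) at 100 μL/min using water and acetonitrile, each with 0.1% formic acid. Detection used a quadrupole time-of-flight mass spectrometer in positive and negative ionization mode, and data collection spanned 3 months. Retention time was obtained from adduct peaks picked computationally and each checked manually.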

With Cc1nn(C(C)C(=O)NC2CCCCC2)c(=O)c2nn(-c3ccccc3)c(C)c12 (centres undefined) the RP-LC retention time was 879 s.
COc1ccc(-c2noc(Cc3nnc(-c4cc(C)cc(C)c4)o3)n2)cc1OC gave an RP-LC retention time of 997 s.
O=c1n(Cc2cccc(Br)c2)nc2c(S(=O)(=O)N3CCCC3)cccn12 showed an RP-LC retention time of 887 s.
For COc1cccc(CNC(=O)N2CCc3nc[nH]c3C2)c1, the RP-LC retention time was 625 s.
Cc1cccc(-c2noc(C3CCCN3C(=O)NC(C)C)n2)c1 (centres undefined) gave an RP-LC retention time of 897 s.
Molecule COc1ccc(OC)c(S(=O)(=O)N(C)CC2(C)CCOCC2)c1 has an RP-LC retention time of 852 s.
For Cn1cccc1C(=O)N1CC[C@@H]2CN(S(C)(=O)=O)[C@@H]2C1, the RP-LC retention time was 624 s.
For COc1cccc(N2CC(C(=O)Nc3nnc4n3CCS4)CC2=O)c1 (centres undefined), the RP-LC retention time was 586 s.
In the case of CC(C)n1c(N2CCN(C(=O)c3ccc(F)c(F)c3)CC2)cc(=O)n(C(C)C)c1=O, the RP-LC retention time is reported as 867 s.
With CCOc1ccc(-c2csc(Cc3nc(-c4ccc(Cl)cc4)no3)n2)cc1 the RP-LC retention time was 1360 s.
For CCc1ccc(-c2cc(C(=O)N3CCN(c4ncccn4)CC3)c3ccccc3n2)s1, the RP-LC retention time was 1090 s.
Cc1ccc2c(c1)N(S(C)(=O)=O)CCC(C(=O)Nc1ccccc1F)O2 (centres undefined) showed an RP-LC retention time of 918 s.
CCn1cc(C)c(C(=O)O)c1CC(=O)NCCCN1CCOCC1 showed an RP-LC retention time of 588 s.
Molecule CCn1ccc(C(=O)N2CCC[C@H]2c2nc(-c3ccccc3)n[nH]2)n1 has an RP-LC retention time of 662 s.
In the case of COc1ccc(N2CCN(C(=O)c3ccc4c(c3)CC(=O)N4C)CC2)cc1, the RP-LC retention time is reported as 801 s.
CCS(=O)(=O)N1CC(=O)N(c2ccc(F)cc2C)C(C)(C(=O)NC2CCCCCC2)C1 (centres undefined) gave an RP-LC retention time of 925 s.
For CCOC(=O)C1CCN(c2cc3c(cc2NC(=O)CCC2CCCC2)n(C)c(=O)c(=O)n3C)CC1, the RP-LC retention time was 999 s.
COc1ccc(Cl)cc1NC(=O)Cn1cccc1-c1nnc(C2CCC2)o1 gave an RP-LC retention time of 1040 s.
Work on COc1ccc(-c2cc(NCCc3ccc(OC)c(OC)c3)ncn2)cc1 yielded an RP-LC retention time of 563 s.
With CC1(C)CC(=O)c2cn(-c3ccc(F)cc3)c(=O)c(C(=O)N3CCN(c4ccccn4)CC3)c2C1 the RP-LC retention time was 636 s.
Molecule CCOc1ccccc1-c1noc(Cn2c(=O)n(-c3ccc(F)cc3)c(=O)c3sccc32)n1 has an RP-LC retention time of 956 s.
O=C(NCc1ccc(F)cc1F)C1CCN(c2cnc(N3CCCC3)nc2)CC1 gave an RP-LC retention time of 668 s.
With Cn1nc(C(=O)N2CCCC(C(=O)Nc3ccccc3)C2)c2c1CCN(C(=O)c1ccco1)C2 (centres undefined) the RP-LC retention time was 717 s.
Molecule Cc1nn(C)cc1CN1CCC[C@H]1c1nc(-c2ccccc2)n[nH]1 has an RP-LC retention time of 580 s.
With CCc1ccc(C(=O)c2cnc3ccc(OC)cc3c2N2CCN(CC)CC2)cc1 the RP-LC retention time was 619 s.
With CC(C)n1cnc(S(=O)(=O)N2CCC(C(=O)NCCCc3ccccc3)CC2)c1 the RP-LC retention time was 764 s.
Work on O=C(c1csc(Nc2ccc(OC(F)F)cc2)n1)N1CCN(c2ncccn2)CC1 yielded an RP-LC retention time of 774 s.
Molecule CCOC(=O)C1CCN([C@H]2CS(=O)(=O)C[C@@H]2S(=O)(=O)c2ccccc2)CC1 has an RP-LC retention time of 826 s.
In the case of CCOc1ccccc1N1CCN(C(=O)c2csc(C(=O)NC3CC3)n2)CC1, the RP-LC retention time is reported as 790 s.
In the case of C=CCN1C(=O)COc2ccc(-c3nc(NC(=O)C4CC4)sc3C)cc21, the RP-LC retention time is reported as 887 s.
For CCNC(=O)c1nc(C(=O)NCCc2ccc(Cl)cc2)cs1, the RP-LC retention time was 842 s.
Molecule CCOc1ccccc1NS(=O)(=O)c1ccc2c(c1)CCCC(=O)N2 has an RP-LC retention time of 783 s.
Work on Cc1nnsc1C(=O)N1CCC(CNC(=O)c2cc(-c3ccccc3)on2)CC1 yielded an RP-LC retention time of 761 s.
In the case of Cc1cnn(CC(=O)N2CCC3(CCC3O)CC2)c1 (centres undefined), the RP-LC retention time is reported as 607 s.
Work on Cc1cc(C)c(NS(=O)(=O)c2ccc(Cl)c(C(=O)O)c2)c(C)c1 yielded an RP-LC retention time of 829 s.
With CCOC(=O)CNC(=O)Cn1cnc2c(oc3ccccc32)c1=O the RP-LC retention time was 624 s.
CCCn1cc(C(=O)NCCC(C)C)c(S(=O)(=O)N2CCN(c3ccccc3OCC)CC2)n1 gave an RP-LC retention time of 1240 s.
For CNS(=O)(=O)CCCOc1ccc2c(c1)OCO2, the RP-LC retention time was 697 s.
Molecule Cc1ccc(S(=O)(=O)N2CCCC2)cc1-c1nnc(-c2ccc(Cl)cc2)o1 has an RP-LC retention time of 1130 s.
In the case of COc1cc([C@@H]2c3cc4c(cc3[C@H](O)[C@@H](CO)[C@@H]2C(=O)NCc2ccc(C)o2)OCO4)cc(OC)c1OC, the RP-LC retention time is reported as 674 s.
Work on O=C(Cn1ccc2ccn(Cc3cccnc3)c2c1=O)NC1CCCC1 yielded an RP-LC retention time of 605 s.
In the case of CC1(C)C(=O)N(CC(=O)Nc2ccc(F)cc2)c2ccccc21, the RP-LC retention time is reported as 866 s.
With O=C(NC1CCCCC1)c1csc(-c2ccc(N3CCCC3)nc2)n1 the RP-LC retention time was 739 s.
With COc1cccc(CNC(=O)NC2CCN(c3cc(C)cc(C)c3)C2=O)c1 (centres undefined) the RP-LC retention time was 840 s.
Molecule COC(=O)c1ccc(-c2nc3cnccn3c2Nc2ccc(Cl)cc2)cc1 has an RP-LC retention time of 953 s.
For CN1CCN(C(=O)C(=O)Nc2c3c(nn2-c2cccc(Cl)c2)CSC3)CC1, the RP-LC retention time was 571 s.
Work on COc1ccc(C2Cn3cnc(C(=O)N4CCC(C(=O)NC(C)c5ccccc5)CC4)c3CO2)cc1 (centres undefined) yielded an RP-LC retention time of 751 s.
C=CCn1c(-c2ccc([N+](=O)[O-])cc2)nc2nc3ccccc3nc21 showed an RP-LC retention time of 825 s.
For Cc1ccc(Cl)cc1N1CCN(c2ccc3cc(S(=O)(=O)N4CCCC4)ccc3n2)CC1, the RP-LC retention time was 1240 s.
Molecule CCN1CCN(C(=O)C2CCN(S(=O)(=O)c3cc(C(=O)N4CCCC4)n(C)c3)CC2)CC1 has an RP-LC retention time of 567 s.
For Cc1ccc(CNC(=O)c2cc(C(C)C)n3nccc3n2)cc1, the RP-LC retention time was 1250 s.
Molecule Cc1ccc(NC(=O)N2CCN(c3cc(C)nc(N4CCCC4)n3)CC2)cc1 has an RP-LC retention time of 677 s.
For CCn1nnc2ccc(-c3noc(-c4ccccc4)n3)cc21, the RP-LC retention time was 1040 s.
Molecule CCc1cc(C(=O)Nc2ccc(F)c(C)c2)nc2ccnn12 has an RP-LC retention time of 1180 s.
For Cc1ccc(-n2nc(C)c3c(C)cc(OCC(=O)Nc4ccc5c(c4)OCO5)nc32)cc1, the RP-LC retention time was 1020 s.
Molecule O=C(O)Cc1sc(Nc2ccccc2)nc1-c1ccccc1 has an RP-LC retention time of 858 s.
COc1ccc(-c2ccc(C(=O)N3CCCc4ccccc43)o2)c([N+](=O)[O-])c1 showed an RP-LC retention time of 976 s.
CCN1CCN(CCCNC(=O)C2CCCN(c3ncnc4onc(C)c34)C2)CC1 (centres undefined) showed an RP-LC retention time of 557 s.
For CCSc1ccc(-c2cccc(NC(=O)COC)c2)nn1, the RP-LC retention time was 762 s.
With CCCn1ncc(N2CCC(C(=O)Nc3ccc(OC)cc3OC)CC2)cc1=O the RP-LC retention time was 723 s.
Work on CC1CCN(CCCNC(=O)c2nnc(-c3ccc(S(=O)(=O)N4CCOCC4)cc3)o2)CC1 yielded an RP-LC retention time of 608 s.
With O=C(NCCCc1ccccc1)c1nnc(-c2ccc(S(=O)(=O)N3CCCC3)cc2)o1 the RP-LC retention time was 971 s.
Molecule COC(=O)c1ccc(NC(=O)CN2CCC(c3nc(-c4cccs4)no3)CC2)cc1 has an RP-LC retention time of 621 s.
O=C(NC1CCN(c2ncnc3c2CCC3)C1)c1ccsc1 (centres undefined) showed an RP-LC retention time of 580 s.
COCCOCc1nc(C2CCCN2C(=O)c2sccc2C)no1 (centres undefined) gave an RP-LC retention time of 716 s.
In the case of Cc1[nH]c(C(=O)Nc2cccc(Cl)c2)c(C)c1S(=O)(=O)N1CCCC1, the RP-LC retention time is reported as 943 s.
CCCn1cc(C2=CCN(S(=O)(=O)c3c(C)nn(C)c3C)CC2)c2cccnc21 gave an RP-LC retention time of 896 s.
In the case of COCCNS(=O)(=O)c1cccc(-c2nc(-c3ccc(C)cc3)no2)c1, the RP-LC retention time is reported as 1060 s.
In the case of Cc1cccc(NC(=O)Nc2nccn(-c3ccc(Br)cc3)c2=O)c1, the RP-LC retention time is reported as 1050 s.
CN1CCN(C2=Cc3ccccc3Oc3ccc(Cl)cc32)CC1 showed an RP-LC retention time of 818 s.
In the case of COc1ccccc1-c1noc(C2CCCN2C(=O)NC2CCCCC2)n1 (centres undefined), the RP-LC retention time is reported as 858 s.
Molecule O=C(Nc1nnc(SCc2nnc(-c3cccc(F)c3)o2)s1)c1ccccc1 has an RP-LC retention time of 887 s.
COc1ccc(CNC(=O)NC2CCN(c3ccc(F)cc3)C2=O)cc1 (centres undefined) gave an RP-LC retention time of 697 s.
For CCNC(=O)c1n[nH]c2c1CN(C(=O)c1ccc(OC(F)(F)F)cc1)CC2, the RP-LC retention time was 728 s.
O=c1ccc(-c2ccccc2)nn1Cc1nc(-c2ccccc2Cl)no1 showed an RP-LC retention time of 976 s.
With Cc1cc(Cl)ccc1OCC(=O)Nc1nc(-c2ccc(Br)cc2)cs1 the RP-LC retention time was 1310 s.
O=C(NCc1ccc(F)cc1F)c1ccc2c(c1)nc1n2CCN(c2ccccc2)C1=O gave an RP-LC retention time of 781 s.
Molecule COc1ccc(C(=O)N2C[C@@H]3C[C@H]2C[C@@H]3NS(=O)(=O)c2ccccc2)cc1OC has an RP-LC retention time of 723 s.
COc1ccc(-c2nnc(-c3ccc(Cl)c(S(=O)(=O)N4CCCCC4)c3)o2)cc1OC gave an RP-LC retention time of 1070 s.
With O=C(CCc1csc(NC(=O)c2ccc[nH]c2=O)n1)NCC1CCCO1 (centres undefined) the RP-LC retention time was 573 s.
O=C(NCc1ccccc1Cl)C(=O)NCC1CCN(C(=O)COc2ccccc2)CC1 gave an RP-LC retention time of 566 s.
CC(C)c1noc(C2Cc3ccccc3N2C(=O)Nc2ccc3c(c2)OCCO3)n1 (centres undefined) gave an RP-LC retention time of 936 s.
In the case of COc1ccccc1OCCC1CCN(S(=O)(=O)Cc2ccccc2F)C1 (centres undefined), the RP-LC retention time is reported as 1030 s.
CCc1ccc(S(=O)(=O)NCCc2sc(C)nc2C)s1 showed an RP-LC retention time of 647 s.
CCn1cc(CN2CCC(C(=O)NCCCc3ccccc3)CC2)c2cc(OC)ccc21 showed an RP-LC retention time of 765 s.
In the case of Cc1c(C(=O)NCC2CC2)cnn1-c1ccc(-c2nc(C(C)(C)C)no2)cn1, the RP-LC retention time is reported as 1020 s.
In the case of CCOC(=O)c1cccc(N2C=C(C#N)S(=O)(=O)c3c(F)cccc32)c1, the RP-LC retention time is reported as 907 s.
With Cc1cc(N2CCN(C)CC2)nc2ccc(NC(=S)N3CCC(Cc4ccccc4)CC3)cc12 the RP-LC retention time was 636 s.
With CCN(c1ccccc1)c1nc(Cl)nc2c1cnn2C the RP-LC retention time was 1070 s.
